The target of data set [1] is 72 kDa type IV collagenase (Homo sapiens, UniProt P08253). Nature of the data set: Inhibition of full length human MMP2 (amino acids 1 to 660) using acetyl-Cys(Eu)-Pro-Leu-Gly-Leu-Lys-(QSY7)-Ala-Arg-amide as substrate preincubated for 1 hrs before substrate addition measured after 15 mins by fluorimetry.
The target of data set [2] is Matrix metalloproteinase-9 (Homo sapiens, UniProt P14780). Description: Inhibition of human MMP9 catalytic domain (amino acids 107 to 446) using acetyl-Cys(Eu)-Pro-Leu-Gly-Leu-Lys-(QSY7)-Ala-Arg-amide as substrate preincubated for 1 hrs before substrate addition measured after 15 mins by fluorimetry.
Chain of Matrix metalloproteinase-9 (P14780 whole entry, the tested form may be a part): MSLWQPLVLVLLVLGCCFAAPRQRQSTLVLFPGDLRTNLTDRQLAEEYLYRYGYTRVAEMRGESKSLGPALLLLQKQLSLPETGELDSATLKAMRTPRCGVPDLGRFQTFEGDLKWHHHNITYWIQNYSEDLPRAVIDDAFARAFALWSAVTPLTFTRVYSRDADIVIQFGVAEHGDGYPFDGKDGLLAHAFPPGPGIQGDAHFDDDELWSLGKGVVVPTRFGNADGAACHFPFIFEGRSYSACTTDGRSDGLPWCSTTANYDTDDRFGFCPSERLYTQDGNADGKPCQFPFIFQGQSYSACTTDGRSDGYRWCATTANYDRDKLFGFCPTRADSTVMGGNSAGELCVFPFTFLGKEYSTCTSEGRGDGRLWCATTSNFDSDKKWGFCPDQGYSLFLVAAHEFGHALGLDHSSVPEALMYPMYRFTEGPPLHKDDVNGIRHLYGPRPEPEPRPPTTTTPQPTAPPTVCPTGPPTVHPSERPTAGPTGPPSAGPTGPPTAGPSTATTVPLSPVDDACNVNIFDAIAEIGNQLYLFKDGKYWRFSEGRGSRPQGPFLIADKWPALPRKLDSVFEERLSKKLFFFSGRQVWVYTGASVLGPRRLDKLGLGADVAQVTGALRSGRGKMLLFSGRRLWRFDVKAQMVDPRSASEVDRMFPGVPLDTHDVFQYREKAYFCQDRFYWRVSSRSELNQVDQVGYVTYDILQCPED
The target of the next data set is T1, Interstitial collagenase (Homo sapiens, UniProt P03956).
T1 sequence (P03956 whole entry): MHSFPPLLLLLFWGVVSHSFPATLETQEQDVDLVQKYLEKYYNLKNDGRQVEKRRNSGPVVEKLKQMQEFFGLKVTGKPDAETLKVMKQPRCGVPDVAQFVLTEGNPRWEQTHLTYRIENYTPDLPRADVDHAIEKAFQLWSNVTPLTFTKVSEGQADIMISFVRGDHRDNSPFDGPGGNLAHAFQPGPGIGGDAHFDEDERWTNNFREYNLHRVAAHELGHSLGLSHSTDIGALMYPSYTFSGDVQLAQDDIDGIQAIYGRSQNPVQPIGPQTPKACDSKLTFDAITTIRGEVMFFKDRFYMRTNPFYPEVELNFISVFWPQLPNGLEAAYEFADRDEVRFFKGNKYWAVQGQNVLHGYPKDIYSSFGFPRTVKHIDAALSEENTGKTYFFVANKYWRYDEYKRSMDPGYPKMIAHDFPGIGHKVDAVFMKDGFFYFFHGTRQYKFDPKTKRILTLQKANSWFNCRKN
Nature of the data set: Inhibition of human MMP1 catalytic domain (amino acids 100 to 262) using acetyl-Cys(Eu)-Pro-Leu-Gly-Leu-Lys-(QSY7)-Ala-Arg-amide as substrate preincubated for 1 hrs before substrate addition measured after 15 mins by fluorimetry.

The next data set addresses Stromelysin-1 (Homo sapiens, UniProt P08254). Description: Inhibition of human MMP3 catalytic domain (amino acids 100 to 265) using acetyl-Cys(Eu)-Pro-Leu-Gly-Leu-Lys-(QSY7)-Ala-Arg-amide as substrate preincubated for 1 hrs before substrate addition measured after 15 mins by fluorimetry.
Another data set concerns the target Collagenase 3 (Homo sapiens, UniProt P45452). Nature of the data set: Inhibition of human MMP13 catalytic domain (amino acids 103 to 268) using acetyl-Cys(Eu)-Pro-Leu-Gly-Leu-Lys-(QSY7)-Ala-Arg-amide as substrate preincubated for 1 hrs before substrate addition measured after 15 mins by fluorimetry.
The species named for data set [3] is Homo sapiens. Nature of the data set: Selectivity ratio of IC50 for human MMP3 catalytic domain (amino acids 100 to 265) to IC50 for full length human MMP2 (amino acids 1 to 660).
The species entered for data set [4] is Homo sapiens. Nature of the data set: Selectivity ratio of IC50 for human MMP3 catalytic domain (amino acids 100 to 265) to IC50 for human MMP9 catalytic domain (amino acids 107 to 446).
For data set [5], the target named is MMP-2/MMP-9 (Homo sapiens) (UniProt P08253+P14780). Nature of the data set: Selectivity ratio of IC50 for full length human MMP2 (amino acids 1 to 660) to IC50 for human MMP9 catalytic domain (amino acids 107 to 446).
Data set [6] is described as follows: Cmax in rat at 0.5 mg/kg, iv. Format: ADME, organism-based. Further details: dose 0.5 mg/kg, route intravenous. To be noted: in vivo.
Data set [7] in a line: Half life in rat at 0.5 mg/kg, iv. The settings on record: in vivo. Format: ADME, organism-based. The arrangement: dose 0.5 mg/kg, route intravenous.
Another data set concerns Rattus norvegicus. Description: (§1) AUC in rat at 0.5 mg/kg, iv. Format: ADME, organism-based, Plasma. The arrangement: dose 0.5 mg/kg, route intravenous. The settings on record: in vivo.
Data set [8] is described as follows: Volume of distribution at steady state in rat at 0.5 mg/kg, iv. Format: ADME, organism-based. Further details: dose 0.5 mg/kg, route intravenous. The settings on record: in vivo, read-out: Vdss.
Data set [9] can be described thus: Cmax in mouse at 10 mg/kg, po. The class given is ADME, organism-based. The arrangement: dose 10 mg/kg, route oral. To be noted: in vivo.
The nature of data set [10]: Half life in mouse at 10 mg/kg, po. To be noted: in vivo. Format: ADME, organism-based. Further details: dose 10 mg/kg, route oral.
Data set [11] addresses Voltage-gated inwardly rectifying potassium channel KCNH2 (Homo sapiens, UniProt Q12809). Description: Binding affinity to human Erg at 10 uM.
For a further data set, the target named is CYP3A4 (Homo sapiens, UniProt P08684). Nature of the data set: Inhibition of CYP 3A4 at 1 uM. The class given is ADME.
Chain of CYP3A4 (P08684 whole entry): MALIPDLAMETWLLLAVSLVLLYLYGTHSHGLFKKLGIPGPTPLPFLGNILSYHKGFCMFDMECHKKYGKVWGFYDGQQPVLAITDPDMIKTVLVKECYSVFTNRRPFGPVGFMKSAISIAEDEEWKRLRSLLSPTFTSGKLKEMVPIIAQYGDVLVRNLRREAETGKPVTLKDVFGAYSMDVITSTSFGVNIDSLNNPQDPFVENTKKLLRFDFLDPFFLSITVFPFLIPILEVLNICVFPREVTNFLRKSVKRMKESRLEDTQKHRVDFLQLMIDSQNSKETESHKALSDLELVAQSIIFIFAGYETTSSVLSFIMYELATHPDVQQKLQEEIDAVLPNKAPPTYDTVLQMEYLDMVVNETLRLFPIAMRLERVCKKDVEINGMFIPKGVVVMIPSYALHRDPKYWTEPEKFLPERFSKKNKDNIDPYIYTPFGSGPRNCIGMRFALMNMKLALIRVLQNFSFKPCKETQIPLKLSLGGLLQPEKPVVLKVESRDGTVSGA
The next data set concerns the target CYP2D6 (Homo sapiens, UniProt P10635). Nature of the data set: Inhibition of CYP 2D6 at 1 uM. Format: ADME.
The subject of another data set is Salmonella typhimurium. Nature of the data set: Induction of mutagenicity in Salmonella Typhimurium by AMES test. Format: toxicity, organism-based. To be noted: salmonella enterica subsp. enterica serovar typhimurium.
Data set [12] is described as follows: as §1. The class given is ADME, organism-based, Plasma. The arrangement: dose 0.5 mg/kg, route intravenous. To be noted: plasma.
A short description of data set [13]: Clearance in rat at 0.5 mg/kg, iv. The class given is ADME, organism-based. The settings on record: in vivo. Further details: dose 0.5 mg/kg, route intravenous.

Chain of 72 kDa type IV collagenase (P08253 whole entry, the tested form may be a part): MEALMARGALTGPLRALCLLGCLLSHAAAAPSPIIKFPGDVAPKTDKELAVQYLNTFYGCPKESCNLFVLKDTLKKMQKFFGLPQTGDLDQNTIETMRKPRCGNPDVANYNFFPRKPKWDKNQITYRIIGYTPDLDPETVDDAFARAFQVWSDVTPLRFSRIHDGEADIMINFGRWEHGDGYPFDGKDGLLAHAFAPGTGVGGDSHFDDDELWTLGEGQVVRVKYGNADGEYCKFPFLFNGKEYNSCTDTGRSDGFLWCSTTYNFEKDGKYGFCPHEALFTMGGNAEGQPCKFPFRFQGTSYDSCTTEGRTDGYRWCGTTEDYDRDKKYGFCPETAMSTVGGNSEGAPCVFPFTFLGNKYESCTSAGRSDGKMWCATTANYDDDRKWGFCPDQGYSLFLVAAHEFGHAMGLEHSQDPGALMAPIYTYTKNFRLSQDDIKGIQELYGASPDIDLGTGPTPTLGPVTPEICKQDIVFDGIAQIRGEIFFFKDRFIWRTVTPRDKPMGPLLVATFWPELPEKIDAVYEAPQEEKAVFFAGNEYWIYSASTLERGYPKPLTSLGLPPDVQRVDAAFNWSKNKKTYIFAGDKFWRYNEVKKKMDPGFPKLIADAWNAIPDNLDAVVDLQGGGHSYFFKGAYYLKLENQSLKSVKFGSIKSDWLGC
Chain of Stromelysin-1 (P08254 whole entry, the tested form may be a part): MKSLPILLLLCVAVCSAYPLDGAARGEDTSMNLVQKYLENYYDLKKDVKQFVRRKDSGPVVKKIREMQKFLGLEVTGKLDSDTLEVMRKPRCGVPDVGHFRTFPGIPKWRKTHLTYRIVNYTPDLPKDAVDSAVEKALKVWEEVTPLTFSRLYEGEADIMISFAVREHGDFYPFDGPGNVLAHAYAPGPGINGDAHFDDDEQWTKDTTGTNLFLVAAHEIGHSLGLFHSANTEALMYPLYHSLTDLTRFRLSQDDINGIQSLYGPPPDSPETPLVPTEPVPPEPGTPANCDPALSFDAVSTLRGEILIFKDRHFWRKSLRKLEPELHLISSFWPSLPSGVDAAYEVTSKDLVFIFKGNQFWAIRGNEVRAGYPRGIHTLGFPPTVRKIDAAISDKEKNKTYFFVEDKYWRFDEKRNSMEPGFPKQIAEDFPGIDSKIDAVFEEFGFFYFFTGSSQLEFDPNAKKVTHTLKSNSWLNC
Chain of Voltage-gated inwardly rectifying potassium channel KCNH2 (Q12809 whole entry): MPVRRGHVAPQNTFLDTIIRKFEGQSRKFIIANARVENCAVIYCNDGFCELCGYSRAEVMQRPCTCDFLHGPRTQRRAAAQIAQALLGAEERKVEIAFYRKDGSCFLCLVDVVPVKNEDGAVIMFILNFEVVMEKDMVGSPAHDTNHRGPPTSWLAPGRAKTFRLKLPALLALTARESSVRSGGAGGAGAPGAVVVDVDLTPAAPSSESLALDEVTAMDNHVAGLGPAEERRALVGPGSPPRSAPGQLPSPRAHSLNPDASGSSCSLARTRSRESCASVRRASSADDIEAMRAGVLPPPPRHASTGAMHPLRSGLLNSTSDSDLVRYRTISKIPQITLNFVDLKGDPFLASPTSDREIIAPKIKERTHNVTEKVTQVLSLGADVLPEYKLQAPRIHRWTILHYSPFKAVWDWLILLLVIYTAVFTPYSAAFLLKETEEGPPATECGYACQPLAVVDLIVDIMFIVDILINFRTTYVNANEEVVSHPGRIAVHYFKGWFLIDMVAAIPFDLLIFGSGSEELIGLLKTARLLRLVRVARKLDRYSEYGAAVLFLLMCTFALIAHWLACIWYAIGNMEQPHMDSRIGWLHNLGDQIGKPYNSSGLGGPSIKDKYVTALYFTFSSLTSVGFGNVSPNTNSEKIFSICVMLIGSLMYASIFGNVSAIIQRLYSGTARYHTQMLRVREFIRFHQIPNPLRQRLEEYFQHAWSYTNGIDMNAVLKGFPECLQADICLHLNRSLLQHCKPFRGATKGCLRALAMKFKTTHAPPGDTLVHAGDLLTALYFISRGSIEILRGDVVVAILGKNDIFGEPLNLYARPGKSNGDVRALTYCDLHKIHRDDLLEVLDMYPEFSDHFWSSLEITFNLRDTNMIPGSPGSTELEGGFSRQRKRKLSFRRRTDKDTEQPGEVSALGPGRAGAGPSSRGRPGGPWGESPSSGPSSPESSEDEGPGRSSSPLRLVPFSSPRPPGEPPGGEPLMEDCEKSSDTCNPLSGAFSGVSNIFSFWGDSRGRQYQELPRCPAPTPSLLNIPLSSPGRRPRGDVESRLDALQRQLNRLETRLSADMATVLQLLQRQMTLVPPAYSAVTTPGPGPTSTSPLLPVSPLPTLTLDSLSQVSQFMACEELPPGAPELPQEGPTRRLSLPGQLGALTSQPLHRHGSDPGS
Chain of CYP2D6 (P10635 whole entry): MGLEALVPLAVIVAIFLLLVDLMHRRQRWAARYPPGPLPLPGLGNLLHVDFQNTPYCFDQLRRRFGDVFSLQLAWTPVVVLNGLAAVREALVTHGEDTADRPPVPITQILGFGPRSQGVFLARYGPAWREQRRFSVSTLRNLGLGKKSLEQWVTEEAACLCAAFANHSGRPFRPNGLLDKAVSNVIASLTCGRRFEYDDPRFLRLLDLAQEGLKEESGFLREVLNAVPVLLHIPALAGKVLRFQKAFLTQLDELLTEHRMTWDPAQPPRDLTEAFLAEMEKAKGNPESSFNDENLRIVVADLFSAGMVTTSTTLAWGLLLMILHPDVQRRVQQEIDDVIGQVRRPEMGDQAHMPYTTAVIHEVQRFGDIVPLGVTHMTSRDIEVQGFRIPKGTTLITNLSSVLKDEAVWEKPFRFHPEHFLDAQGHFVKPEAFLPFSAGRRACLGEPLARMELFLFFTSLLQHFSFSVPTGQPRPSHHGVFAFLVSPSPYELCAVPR

For orientation: IC50 means the concentration that inhibits the measured activity by half. The low end stands for greater potency in that assay, the high end for weaker potency in that assay. For `O=C1[C@H](NS(=O)(=O)c2ccc(Oc3ccc(Cl)cc3)cc2)CC=C(CN2CCOCC2)CN1O`, the IC50 in data set [1] is 0.53 nM; in data set [2], 0.46 nM; against Interstitial collagenase it was above 1000 nM; on Stromelysin-1 it was 39 nM; at Collagenase 3, 0.2 nM. Further, the Ratio IC50 in the data set filed under Homo sapiens [3] and in the data set listed under Homo sapiens [4] was 100 in each case.
Turning to `O=C1[C@H](NS(=O)(=O)c2ccc(Oc3ccncc3)cc2)CC=CCN1O`, the IC50 was determined as 3 nM in data set [1] and 12 nM in data set [2].
On to `O=C1[C@H](N(CCN2CCCCC2)S(=O)(=O)c2ccc(Oc3ccc(Cl)cc3)cc2)CC=CCN1O`, for which the Ratio IC50 in [5] was 2.
For `COc1ccc(Oc2ccc(S(=O)(=O)N[C@@H]3CC=CCN(O)C3=O)cc2)cc1`, the values for the 50% inhibitory concentration (IC50) in data set [1] and in data set [2] were 2 nM and 1 nM, respectively.
For `Cc1ccc(-c2ccc(S(=O)(=O)N[C@@H]3CC=CCN(O)C3=O)s2)cc1` the same measures were 4 nM and 9 nM.
On to `O=C1[C@H](NS(=O)(=O)c2ccc(Oc3ccccc3)cc2)CC=CCN1O`, for which the IC50 amounted to 1 nM in data set [1] and 2 nM in data set [2].
Turning to `O=C1NCC=CC[C@H]1NS(=O)(=O)c1ccc(Oc2ccc(Cl)cc2)cc1`, the IC50 in data set [1] and in [2] was above 1000 nM each time.
What is called Cmax is the highest concentration seen after dosing. The term half-life denotes the time in which the quantity being followed falls by half. A higher half-life goes with slow decline. Usually AUC stands for concentration integrated over time. One may read the inhibition as the change of the read-out against control, counted positive when it falls. Low values mean little suppression, high ones strong suppression. With `O=C1[C@H](N(CCN2CCOCC2)S(=O)(=O)c2ccc(Oc3ccc(Cl)cc3)cc2)CC=CCN1O`, the IC50 was 0.39 nM in data set [1]; 0.22 nM in [2]; above 1000 nM at Interstitial collagenase; 90 nM at Stromelysin-1; 0.7 nM against Collagenase 3. Moreover, the Ratio IC50 in data set [5] amounted to 2; in the data set filed under Homo sapiens [3], 100; in the data set filed under Homo sapiens [4], 100. The Cmax in data set [6] was 4.4 µM; in data set [9], 38.3 µM. Moreover, the results for the half-life in data set [7] and in data set [10] were 2 h and 1 h, respectively. The AUC in the data set with Rattus norvegicus turned out to be 1831 ng·h/mL. In [8], the Vd stood at 1.4 L/kg. The Activity in data set [11] is below 50%; in the data set with Salmonella typhimurium it was “Non-toxic”. The inhibition at 1 µM against CYP3A4 and against CYP2D6 was below 50% each time.
Turning to `O=C1[C@H](NS(=O)(=O)c2ccc(-c3ccc(Cl)cc3)s2)CC=CCN1O`, the IC50 in data set [1] was determined as 11 nM; in data set [2] it was 16 nM.
For the compound `Cc1ccc(C#Cc2ccc(S(=O)(=O)N(CCN3CCOCC3)[C@@H]3CC=CCN(O)C3=O)s2)cc1`, the IC50 came to 2.4 nM in data set [1] and 0.8 nM in data set [2]. The Ratio IC50 in data set [5] was found to be 2.
By clearance is commonly meant a measure of how efficiently the substance is removed, as volume per time. As for `O=C1[C@H](NS(=O)(=O)c2ccc(Oc3ccc(Cl)cc3)cc2)CC=CCN1O`, the IC50 in data set [1] is 0.57 nM; in data set [2], 0.58 nM; against Interstitial collagenase, above 1000 nM; on Stromelysin-1, 86 nM; on Collagenase 3 it was 0.4 nM. Besides, the Ratio IC50 in the data set listed under Homo sapiens [3] and in the data set filed under Homo sapiens [4] was 100 in each case. Also, the highest level in [6] (Cmax) was 4.6 µM. In [7], this compound showed a half-life of 14 h. In addition, in data set [12], the AUC is 1230 ng·h/mL. Moreover, in data set [8], the Vd was determined as 3.3 L/kg. Besides, in data set [13], the clearance was determined as 7 mL/min/kg. Moreover, the results for the Activity (in data set [11]; in the data set on Salmonella typhimurium) were below 50% and “Non-toxic”, respectively. Further, the inhibition at 1 µM against CYP3A4 and at CYP2D6 was below 50% throughout.
On to `O=C1[C@@H](NS(=O)(=O)c2ccc(Oc3ccc(Cl)cc3)cc2)CC=CCN1O`, for which the figures for the IC50 in [1] and in data set [2] were 1600 nM and 1120 nM, respectively.
For `O=C1[C@H](NS(=O)(=O)c2ccc(-c3ccc(Cl)cc3)cc2)CC=CCN1O` the same measures were 85 nM and 1510 nM.
In the case of `O=C1[C@H](N(CCN2CCOCC2)S(=O)(=O)c2ccc(-c3ccc(Cl)cc3)s2)CC=CCN1O`, the IC50 is 16 nM in [1] and 17 nM in data set [2].
Regarding `COc1ccc(-c2ccc(S(=O)(=O)N[C@@H]3CC=CCN(O)C3=O)s2)cc1`, the half-inhibitory concentration (IC50) in [2] is 11 nM; against Interstitial collagenase, above 1000 nM; against Stromelysin-1, 493 nM; on Collagenase 3 it was 3 nM. The Ratio IC50 in the data set listed under Homo sapiens [3] and in the data set filed under Homo sapiens [4] was 100 in each case.
Turning to `CN1CCN(CCN([C@@H]2CC=CCN(O)C2=O)S(=O)(=O)c2ccc(Oc3ccc(Cl)cc3)cc2)CC1`, the Ratio IC50 in data set [5] stood at 2.
Regarding `O=C(N[C@@H]1CC=CCN(O)C1=O)c1ccc(Oc2ccc(Cl)cc2)cc1`, the IC50 in data set [1] turned out to be 2320 nM; in data set [2] it was 5090 nM.
In the same order, the values of `CC1=CC[C@@H](NS(=O)(=O)c2ccc(Oc3ccc(Cl)cc3)cc2)C(=O)N(O)C1` are 2 nM and 1.3 nM.
For `O=C1[C@H](NS(=O)(=O)c2ccc(Oc3ccc(C(F)(F)F)cc3)cc2)CC=CCN1O` the same measures were 2 nM and 2 nM.
In the same order, the values of `O=C1[C@H](NS(=O)(=O)c2ccc(Oc3ccc(Cl)cc3)cc2)CCCCN1O` are 3.7 nM and 5.9 nM.
For the compound `Cc1ccc(-c2ccc(S(=O)(=O)N(CCN3CCOCC3)[C@@H]3CC=CCN(O)C3=O)s2)cc1`, the IC50 in [1] amounted to 7 nM; in [2] it was 11 nM.

The values are drawn from ChEMBL document CHEMBL1914289, “Discovery of novel Cobactin-T based matrix metalloproteinase inhibitors via a ring closing metathesis strategy” (Bioorg Med Chem Lett, 2011).
